Test results published in PMC6597039, “Bioactive secondary metabolites from new endophytic fungus Curvularia. sp isolated from Rauwolfia macrophylla” (PLoS ONE, 2019).
In brackets after ≈: the same amount, converted by molar mass.

Assays:
[1] = ABTS+ free radical scavenging assay; conditions: Table 3, unit not given in the table (μM); read-out: EC50 Antiradical activity (ABTS+)
[2] = DPPH free radical scavenging assay; conditions: Table 3, unit not given in the table (μM); read-out: EC50 Antioxidant activity (DPPH•)
[3] = system: Micrococcus luteus (DSMZ1605); experiment: In vitro antibacterial assay, micro-dilution MIC; type: cell-based; conditions: 30 °C, 24 h
[4] = system: Staphylococcus warneri (DSMZ20036); experiment: In vitro antibacterial assay, micro-dilution MIC; type: cell-based; conditions: 37 °C, 24 h
[5] = system: Escherichia coli (DSMZ1058); experiment: In vitro antibacterial assay, micro-dilution MIC; type: cell-based; conditions: Escherischia coli, 37 °C, 24 h
[6] = molecular target: Electric eel AChE (Electrophorus electricus, UniProt O42275); experiment: biochemical; conditions: substrate ATCI, pH 8.0, 25 °C, read-out: IC50 acetylcholinesterase inhibition
[7] = system: Pseudomonas agarici (DSMZ11810); experiment: In vitro antibacterial assay, micro-dilution MIC; type: cell-based; conditions: 30 °C, 24 h
[8] = system: Escherichia coli, Micrococcus luteus, Pseudomonas agarici and Staphylococcus warneri; experiment: In vitro antibacterial assay, MIC over all the tested bacterial strains; type: cell-based; conditions: range over four bacterial strains; read-out: MIC ranging over all the tested bacterial strains
[9] = system: p53-HDM2 interaction; design: method as in PMID 16246554; conditions: cited from earlier work
[10] = system: mucosal-type mast cells; conditions: cited from earlier work
[11] = system: Trypanosoma cruzi trypomastigotes; design: method as in PMID 28572816; conditions: cited from earlier work

Chain of Electric eel AChE (O42275 24-633): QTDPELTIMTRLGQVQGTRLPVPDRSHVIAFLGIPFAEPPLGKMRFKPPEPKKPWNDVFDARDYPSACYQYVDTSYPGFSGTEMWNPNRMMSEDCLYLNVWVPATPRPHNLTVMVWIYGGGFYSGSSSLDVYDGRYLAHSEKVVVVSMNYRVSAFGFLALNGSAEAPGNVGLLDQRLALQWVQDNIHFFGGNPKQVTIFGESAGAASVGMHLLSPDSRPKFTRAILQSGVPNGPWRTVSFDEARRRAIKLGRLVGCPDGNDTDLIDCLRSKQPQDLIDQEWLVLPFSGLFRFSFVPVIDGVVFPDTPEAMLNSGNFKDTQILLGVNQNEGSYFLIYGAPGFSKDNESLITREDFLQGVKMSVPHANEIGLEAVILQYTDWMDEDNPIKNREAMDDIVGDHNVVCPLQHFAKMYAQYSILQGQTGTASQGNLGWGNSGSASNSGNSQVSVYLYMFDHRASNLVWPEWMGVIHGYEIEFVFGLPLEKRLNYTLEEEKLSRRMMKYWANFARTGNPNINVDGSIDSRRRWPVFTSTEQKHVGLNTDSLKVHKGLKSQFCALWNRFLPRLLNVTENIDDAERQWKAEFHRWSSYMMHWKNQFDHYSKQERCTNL

Structure (SMILES) | EC50 [1] | EC50 [2] | MIC [3] | MIC [4] | MIC [5] | IC50 [6] | MIC [7] | MIC [8] | inhibition of p53-HDM2 interaction [9] | effect on the activity of mucosal-type mast cells [10] | IC50 anti-Trypanosoma cruzi activity against trypomastigotes [11]
COc1ccc(O)c(C(C)(C)C)c1 [BHA, butylated hydroxyanisole, reference compound] | 0.01 µM | 0.13 µM | – | – | – | – | – | – | – | – | –
Cc1cc(C(C)(C)C)c(O)c(C(C)(C)C)c1 [BHT, butylated hydroxytoluene, reference compound] | 0.06 µM | 0.46 µM | – | – | – | – | – | – | – | – | –
O=C1CC(O)C(CO)O1 (stereo not drawn) [Compound 1, 2'-deoxyribolactone] | 0.49 ± 0.02 µM | 0.66 ± 0.02 µM | 0.32 µg/mL (≈ 2.42 µM) | 0.17 µg/mL (≈ 1.29 µM) | 0.3 µg/mL (≈ 2.27 µM) | 1.93 µM | 0.19 µg/mL (≈ 1.44 µM) | 0.17 to 0.58 µg/mL (≈ 1.29 to 4.39 µM) | – | – | –
C=C(C(=O)O)C(CCCCCC)C(=O)O (stereo not drawn) [Compound 2, hexylitaconic acid] | 0.88 ± 0.02 µM | 0.56 ± 0.02 µM | 0.29 µg/mL (≈ 1.35 µM) | 0.58 µg/mL (≈ 2.71 µM) | 0.58 µg/mL (≈ 2.71 µM) | 1.54 µM | 0.29 µg/mL (≈ 1.35 µM) | 0.17 to 0.58 µg/mL (≈ 0.793 to 2.71 µM) | inhibitor | – | –
CC(C)[C@@H](C)/C=C/[C@@H](C)[C@H]1CC[C@H]2C3=CC=C4C[C@@H](O)CC[C@]4(C)[C@H]3CC[C@]12C [Compound 3, ergosterol] | 0.83 ± 0.02 µM | 1.09 ± 0.02 µM | – | – | – | 1.52 µM | – | – | – | inhibitory effect | 51.3 µg/mL (≈ 129 µM)
CNC(C)C1CCC(N)C(OC2C(N)CC(N)C(OC3OCC(C)(O)C(NC)C3O)C2O)O1 (stereo not drawn) [Gentamicin, reference compound] | – | – | 0.01 µg/mL (≈ 0.0209 µM) | 0.01 µg/mL (≈ 0.0209 µM) | 0.01 µg/mL (≈ 0.0209 µM) | – | 0.01 µg/mL (≈ 0.0209 µM) | – | – | – | –
